Assay results: the NIST ThermoML archive (doi:10.1021/je9010882)
Values joined by “and” are separate entries in the source; they are usually repeats but may differ in a detail not shown here. Equal values may be shown once.

Legend:
[1] = xn = mol fraction of the nth substance listed; details: 101 kPa, Liquid; for speed of sound: Pulse-echo method
[2] = 101 kPa, Liquid; for speed of sound: Pulse-echo method

OCCO [1,2-ethanediol] + CCO
[1], 298.15 K
Details	mass density [kg/m3]	speed of sound [m/s]
x1 = 0.1002	819.39	1187.5
x1 = 0.198	852.357	1231.7
x1 = 0.3014	886.918	1279.7
x1 = 0.3462	901.797	–
x1 = 0.3998	–	1328
x1 = 0.4944	950.526	1374.9
x1 = 0.6428	998.611	1454.5
x1 = 0.7499	1032.4	1513.4
x1 = 0.8498	1063.88	1569.5
x1 = 1	–	1654.4

OCCO [1,2-ethanediol]
[2]
Details	mass density [kg/m3]	speed of sound
293.15 K	1113.37	–
298.15 K	–	1654.4 m/s and 1655.2 m/s

CCCCCCCCCO [nonan-1-ol] + OCCO
mass density [kg/m3], [1]
Details	x2 = 0	x2 = 0.1047	x2 = 0.204	x2 = 0.2878	x2 = 0.3927	x2 = 0.5203	x2 = 0.5982	x2 = 0.703	x2 = 0.7805	x2 = 0.9004
293.15 K	827.65	837.118	847.778	858.547	874.431	898.673	917.33	948.15	977.295	1038.17
298.15 K	824.238	833.672	844.308	855.056	870.919	895.129	913.771	944.568	973.695	1034.58

CCCCCCCO [heptan-1-ol] + OCCO
[1], 298.15 K
Details	mass density [kg/m3]	speed of sound [m/s]
x2 = 0	818.793	1327
x2 = 0.0668	826.183	1330.3
x2 = 0.1162	832.262	–
x2 = 0.2007	843.633	1339.2
x2 = 0.2946	858.174	1346.9
x2 = 0.4022	877.754	1359.6
x2 = 0.4834	895.05	1371.6
x2 = 0.5508	911.359	1384.3
x2 = 0.6087	927.049	1398.5
x2 = 0.6766	948.151	1418.2
x2 = 0.7988	994.195	1470.8
x2 = 0.894	1041.3	1538

OCCO [1,2-ethanediol] + CCCCCCCCCO
Details	mass density [kg/m3]
[1], 293.15 K, x1 = 1	1113.37

CCCCC(CC)CO (stereo not given) [2-ethyl-1-hexanol] + OCCO
[1], 298.15 K
Details	mass density [kg/m3]	speed of sound [m/s]
x2 = 0	828.667	1318.4
x2 = 0.1858	848.929	1334.2
x2 = 0.2952	863.973	1345.5
x2 = 0.4043	881.937	1358.8
x2 = 0.4512	890.807	–
x2 = 0.4914	899.091	1372.4
x2 = 0.599	924.736	1394.9
x2 = 0.6996	954.672	1423.5
x2 = 0.7985	991.938	1468.2
x2 = 0.8507	1015.69	–
x2 = 0.9	1041.98	1539.4

CCCCCCCO [heptan-1-ol]
[2], 298.15 K
Details	mass density [kg/m3]	speed of sound [m/s]
–	818.793	1327

CCO [ethanol] + OCCO
[1], 298.15 K, x2 = 0
Details	mass density [kg/m3]	speed of sound [m/s]
–	785.144	1142

OCCO [1,2-ethanediol] + CCCCC(CC)CO
Details	speed of sound [m/s]
[1], 298.15 K, x1 = 1	1655.2

CCCCC(CC)CO (stereo not given) [2-ethyl-1-hexanol]
[2], 298.15 K
Details	mass density [kg/m3]	speed of sound [m/s]
–	828.667	1318.4

CCCCCCCCCO [nonan-1-ol]
[2], Vibrating tube method
Details	mass density [kg/m3]
293.15 K	827.65
298.15 K	824.238

CCO [ethanol]
[2], 298.15 K
Details	mass density [kg/m3]	speed of sound [m/s]
–	785.144	1142

OCCO [1,2-ethanediol] + CCCCCCCO
Details	speed of sound [m/s]
[1], 298.15 K, x1 = 1	1655.2
